From patent publication US10023602B2, “Hamamelitannin analogues and uses thereof” (Universiteit Gent, priority 2014, dated 2018)

Tests used:
[1] = system: methicillin resistant S. aureus Mu50 strain (S. aureus ATCC700699) biofilm; assay: Biofilm susceptibility to vancomycin, pre-treatment regimen (biofilm formed in presence of compound, then vancomycin); format: cell-based; conditions: for Pretreat (100 μM): percentage Colony Forming Units (CFU's) per biofilm: compound 100 μM during biofilm formation, then VAN 20 μg/ml, compared to the untreated (negative) control; for EC50: concentration needed to get 50% killing compared to antibiotic alone (VAN 20 μg/ml) and complete killing, read-out: Pretreat. (EC50)
Procedure: (§1) The compounds were evaluated for their effect on biofilm susceptibility both under pre-treatment and combination treatment regimens. In the pre-treatment regimen, a methicillin resistant S. aureus Mu50 strain (S. aureus ATCC700699) was allowed to form biofilms in the presence of the compounds after which the biofilm was treated with vancomycin (20 μg/ml). In the combination treatment regimen, S. aureus Mu50 was allowed to form a mature biofilm after which it was treated with a combination of a compound and vancomycin. In brief, 100 μl of a standardized inoculum (10^8 CFU/ml) was placed in the wells of a round-bottom 96-well microtiter plate. The cells were allowed to adhere to the plate in the absence (combined treatment) or presence (pre-treatment) of the compounds (0.1-250 μM) for 4 h at 37° C. After this adhesion step, non-adhered cells were removed, the wells were rinsed and fresh medium with or without the compounds was added. The plates were incubated for an additional 20 h at 37° C. After this, the medium was removed, biofilms were rinsed with physiological saline and vancomycin (20 μg/ml) was added alone (pre-treatment) or with the compounds (combined treatment, 0.1-250 μM). Plates were placed at 37° C. for 24 h after which medium was removed, wells were rinsed and the surviving cells in each condition were collected. The number of surviving cells under each condition was compared to vancomycin treatment alone and was assessed by conventional plating. The REF compound (hamamelitannin) was also observed for its effect on biofilm susceptibility towards other antibiotics (incl. vancomycin, cefoxitin, tobramycin, cefazolin, cefalonium, daptomycin, linezolide and cephalexin). Biofilms were formed as described above and were treated with the antibiotics alone or in combination with the REF compound (250 μM). The number of surviving cells under each condition was compared to the untreated control biofilm and was assessed by conventional plating.

[2] = system: methicillin resistant S. aureus Mu50 strain (S. aureus ATCC700699) biofilm; assay: Biofilm susceptibility to vancomycin, combination treatment regimen (mature biofilm treated with compound plus vancomycin); format: cell-based; conditions: for Combin. (100 μM): percentage Colony Forming Units (CFU's) per biofilm: compound 100 μM together with VAN 20 μg/ml on mature biofilm, compared to the untreated (negative) control; for EC50: concentration needed to get 50% killing compared to antibiotic alone (VAN 20 μg/ml) and complete killing, read-out: Combin. (EC50)
Procedure: as §1

SMILES	Pretreat (100 μM): percentage Colony Forming Units (CFU's) per biofilm [1] [percentage]	Combin. (100 μM): percentage Colony Forming Units (CFU's) per biofilm [2] [percentage]	EC50 [1] [µM]	EC50 [2] [µM]
O=C(NC[C@H]1OC[C@@](O)(CNC(=O)c2ccccc2)[C@@H]1O)c1ccc(Cl)c(Cl)c1 [compound 182, N-(((2R,3R,4S)-4-(benzamidomethyl)-3,4-dihydroxytetrahydrofuran-2-yl)methyl)-3,4-dichlorobenzamide]	42.13	33.81		
COc1ccc(C(=O)NC[C@H]2OC[C@@](O)(CNC(=O)c3ccccc3)[C@@H]2O)cc1OC [compound 183, N-(((2R,3R,4S)-4-(benzamidomethyl)-3,4-dihydroxytetrahydrofuran-2-yl)methyl)-3,4-dimethoxybenzamide]	60.04	61.60		
O=C(NC[C@]1(O)CO[C@H](CNC(=O)c2cccc3ccccc23)[C@H]1O)c1ccccc1 [compound 184, N-(((2R,3R,4S)-4-(benzamidomethyl)-3,4-dihydroxytetrahydrofuran-2-yl)methyl)-1-naphthamide]	33.91	40.23		
O=C(NC[C@H]1OC[C@@](O)(CNC(=O)c2ccccc2)[C@@H]1O)c1ccc2ccccc2c1 [compound 185, N-(((2R,3R,4S)-4-(benzamidomethyl)-3,4-dihydroxytetrahydrofuran-2-yl)methyl)-2-naphthamide]	22.11	36.32		
Cn1c(C(=O)NC[C@H]2OC[C@@](O)(CNC(=O)c3ccccc3)[C@@H]2O)cc2ccccc21 [compound 186, N-(((2R,3R,4S)-4-(benzamidomethyl)-3,4-dihydroxytetrahydrofuran-2-yl)methyl)-1-methyl-1H-indole-2-carboxamide]	41.45	42.75		
Cn1cc(C(=O)NC[C@H]2OC[C@@](O)(CNC(=O)c3ccccc3)[C@@H]2O)c2ccccc21 [compound 187, N-(((2R,3R,4S)-4-(benzamidomethyl)-3,4-dihydroxytetrahydrofuran-2-yl)methyl)-1-methyl-1H-indole-3-carboxamide]	32.91	29.24		
O=C(NC[C@H]1OC[C@@](O)(CNC(=O)c2ccccc2)[C@@H]1O)c1ccccc1 [compound 188, N,N′-(((2R,3R,4S)-3,4-dihydroxytetrahydrofuran-2,4-diyl)bis(methylene))dibenzamide]	34.36	34.64		
O=C(Cc1ccccc1)NC[C@H]1OC[C@@](O)(CNC(=O)c2ccccc2)[C@@H]1O [compound 189, N-(((3S,4R,5R)-3,4-dihydroxy-5-((2-phenylacetamido)methyl)tetrahydrofuran-3-yl)methyl)benzamide]	59.77	58.95		
O=C(CCc1ccccc1)NC[C@H]1OC[C@@](O)(CNC(=O)c2ccccc2)[C@@H]1O [compound 190, N-(((3S,4R,5R)-3,4-dihydroxy-5-((3-phenylpropanamido)methyl)tetrahydrofuran-3-yl)methyl)benzamide]	64.43	29.24		
O=C(NC[C@]1(O)CO[C@H](CNC(=O)C2CCCCC2)[C@H]1O)c1ccccc1 [compound 191, N-(((3S,4R,5R)-5-(cyclohexanecarboxamidomethyl)-3,4-dihydroxytetrahydrofuran-3-yl)methyl)benzamide]	32.28	19.28		
O=C(NC[C@]1(O)CO[C@H](CNC(=O)c2c(Cl)cccc2Cl)[C@H]1O)c1ccccc1 [compound 192, N-(((2R,3R,4S)-4-(benzamidomethyl)-3,4-dihydroxytetrahydrofuran-2-yl)methyl)-2,6-dichlorobenzamide]	31.41	43.74	59.2	136
O=C(NC[C@]1(O)CO[C@H](CNC(=O)c2ccc(Cl)cc2Cl)[C@H]1O)c1ccccc1 [compound 193, N-(((2R,3R,4S)-4-(benzamidomethyl)-3,4-dihydroxytetrahydrofuran-2-yl)methyl)-2,4-dichlorobenzamide]	10.80	11.25	11.4	11.7
O=C(NC[C@]1(O)CO[C@H](CNC(=O)c2c(Cl)cc(Cl)cc2Cl)[C@H]1O)c1ccccc1 [compound 194, N-(((2R,3R,4S)-4-(benzamidomethyl)-3,4-dihydroxytetrahydrofuran-2-yl)methyl)-2,4,6-trichlorobenzamide]	20.50	13.31		
O=C(NC[C@]1(O)CO[C@H](CNC(=O)c2c(Cl)cncc2Cl)[C@H]1O)c1ccccc1 [compound 195, N-(((2R,3R,4S)-4-(benzamidomethyl)-3,4-dihydroxytetrahydrofuran-2-yl)methyl)-3,5-dichloroisonicotinamide]	18.31	18.55	7.2	9.26
O=C(NC[C@]1(O)CO[C@H](CNC(=O)c2c(Cl)ccnc2Cl)[C@H]1O)c1ccccc1 [compound 196, N-(((2R,3R,4S)-4-(benzamidomethyl)-3,4-dihydroxytetrahydrofuran-2-yl)methyl)-2,4-dichloronicotinamide]	21.86	8.072	13	7.88
O=C(NC[C@]1(O)CO[C@H](CNC(=O)c2ccc(Cl)nc2Cl)[C@H]1O)c1ccccc1 [compound 197, N-(((2R,3R,4S)-4-(benzamidomethyl)-3,4-dihydroxytetrahydrofuran-2-yl)methyl)-2,6-dichloronicotinamide]	18.75	16.84	7.92	8.27
O=C(NC[C@]1(O)CO[C@H](CNC(=O)c2cnc(Cl)cc2Cl)[C@H]1O)c1ccccc1 [compound 198, N-(((2R,3R,4S)-4-(benzamidomethyl)-3,4-dihydroxytetrahydrofuran-2-yl)methyl)-4,6-dichloronicotinamide]	19.18	11.25	10.8	7.52
O=C(NC[C@]1(O)CO[C@H](CNC(=O)c2cccnc2Cl)[C@H]1O)c1ccccc1 [compound 199, N-(((2R,3R,4S)-4-(benzamidomethyl)-3,4-dihydroxytetrahydrofuran-2-yl)methyl)-2-chloronicotinamide]	68.76	65.56	> 250	> 250
O=C(NC[C@]1(O)CO[C@H](CNC(=O)c2ccncc2Cl)[C@H]1O)c1ccccc1 [compound 200, N-(((2R,3R,4S)-4-(benzamidomethyl)-3,4-dihydroxytetrahydrofuran-2-yl)methyl)-3-chloroisonicotinamide]	58.59	48.93	> 250	232
O=C(NC[C@]1(O)CO[C@H](CNC(=O)c2cnccc2Cl)[C@H]1O)c1ccccc1 [compound 201, N-(((2R,3R,4S)-4-(benzamidomethyl)-3,4-dihydroxytetrahydrofuran-2-yl)methyl)-4-chloronicotinamide]	51.81	74.81	200	> 250
O=C(NC[C@H]1OC[C@@](O)(CNC(=O)c2ccccc2)[C@@H]1O)c1ccc(Cl)nc1 [compound 202, N-(((2R,3R,4S)-4-(benzamidomethyl)-3,4-dihydroxytetrahydrofuran-2-yl)methyl)-6-chloronicotinamide]	14.00	18.24		
